{
  "source": "ChEMBL document CHEMBL3525977",
  "about": "“Differential impact of P-glycoprotein (ABCB1) and breast cancer resistance protein (ABCG2) on axitinib brain accumulation and oral plasma pharmacokinetics” (Drug Metab Dispos, 2011)",
  "key": {"[1]": {"assay": "Efflux ratio in wild type MDCK2 cells at 1 uM after 1 to 4 hrs", "assay_type": "ADME, cell-based, Canis lupus familiaris, MDCK-II", "conditions": "dog, MDCK; call rule not given here"}, "[2]": {"assay": "AUC (0 to 1 hr) in Abcb1a/1b;Abcg2 (-/-) FVB mouse plasma at 10 mg/kg, po by liquid chromatography-tandem mass spectrometry", "assay_type": "ADME, organism-based", "design": "time < 1 hr, dose 10 mg/kg, route oral"}, "ABCG2": {"biological_target": "T1, ABCG2 (Homo sapiens, UniProt Q9UNQ0)", "T1 sequence (Q9UNQ0 whole entry)": "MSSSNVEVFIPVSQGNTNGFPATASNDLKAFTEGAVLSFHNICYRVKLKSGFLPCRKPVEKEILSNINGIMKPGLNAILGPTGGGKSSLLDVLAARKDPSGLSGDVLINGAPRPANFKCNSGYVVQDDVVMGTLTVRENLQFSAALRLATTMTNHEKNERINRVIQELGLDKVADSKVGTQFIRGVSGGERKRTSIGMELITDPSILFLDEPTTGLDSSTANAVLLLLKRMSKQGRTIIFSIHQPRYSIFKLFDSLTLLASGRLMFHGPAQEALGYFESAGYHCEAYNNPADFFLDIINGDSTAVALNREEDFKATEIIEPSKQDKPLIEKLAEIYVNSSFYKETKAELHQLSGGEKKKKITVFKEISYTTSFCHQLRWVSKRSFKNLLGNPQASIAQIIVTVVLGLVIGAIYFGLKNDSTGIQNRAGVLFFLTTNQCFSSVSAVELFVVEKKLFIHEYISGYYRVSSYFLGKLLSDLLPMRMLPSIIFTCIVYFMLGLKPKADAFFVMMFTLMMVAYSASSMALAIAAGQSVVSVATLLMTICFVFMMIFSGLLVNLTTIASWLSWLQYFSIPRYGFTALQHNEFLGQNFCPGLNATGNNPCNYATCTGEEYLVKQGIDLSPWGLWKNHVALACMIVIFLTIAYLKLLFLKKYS", "assay": "Drug transport in MDCK2 cells expressing human ABCG2 assessed as transporter-mediated efflux ratio at 1 uM after 1 to 4 hrs", "assay_type": "ADME, cell-based"}, "[3]": {"assay": "AUC (0 to 1 hr) in Abcg2 (-/-) FVB mouse plasma at 10 mg/kg, po by liquid chromatography-tandem mass spectrometry", "assay_type": "ADME, organism-based", "design": "time < 1 hr, dose 10 mg/kg, route oral"}, "[4]": {"assay": "Drug transport in MDCK2 cells at 1 uM after 1 to 4 hrs in presence of 5 uM ABCB1/ABCG2 inhibitor elacridar", "assay_type": "ADME, cell-based, Canis lupus familiaris", "conditions": "dog, mdck-ii"}, "Brain [5]": {"tested_on": "Brain", "assay": "Drug level in brain of Abcb1a/1b (-/-) FVB mouse at 10 mg/kg, po after 4 hrs by liquid chromatography-tandem mass spectrometry relative to wild type FVB mouse", "assay_type": "ADME, organism-based", "design": "dose 10 mg/kg, route oral", "conditions": "in vivo"}, "[6]": {"assay": "Drug transport in MDCK2 cells at 1 uM after 1 to 4 hrs in presence of 5 uM ABCB1 inhibitor zosuquidar", "assay_type": "ADME, cell-based, Canis lupus familiaris", "conditions": "dog, mdck-ii"}, "[7]": {"assay": "Drug level in brain of FVB mouse at 10 mg/kg, po after 4 hrs by liquid chromatography-tandem mass spectrometry", "assay_type": "ADME, organism-based", "design": "dose 10 mg/kg, route oral", "conditions": "read-out: Drug uptake"}, "[8]": {"assay": "AUC (0 to 1 hr) in FVB mouse plasma at 10 mg/kg, po by liquid chromatography-tandem mass spectrometry", "assay_type": "ADME, organism-based", "design": "time < 1 hr, dose 10 mg/kg, route oral"}, "[9]": {"assay": "Drug level in brain of Abcb1a/1b;Abcg2 (-/-) FVB mouse at 10 mg/kg, po after 4 hrs by liquid chromatography-tandem mass spectrometry", "assay_type": "ADME, organism-based", "design": "dose 10 mg/kg, route oral", "conditions": "read-out: Drug uptake"}, "[10]": {"biological_target": "T2, Broad substrate specificity ATP-binding cassette transporter ABCG2 (Mus musculus, UniProt Q7TMS5)", "T2 sequence (Q7TMS5 whole entry)": "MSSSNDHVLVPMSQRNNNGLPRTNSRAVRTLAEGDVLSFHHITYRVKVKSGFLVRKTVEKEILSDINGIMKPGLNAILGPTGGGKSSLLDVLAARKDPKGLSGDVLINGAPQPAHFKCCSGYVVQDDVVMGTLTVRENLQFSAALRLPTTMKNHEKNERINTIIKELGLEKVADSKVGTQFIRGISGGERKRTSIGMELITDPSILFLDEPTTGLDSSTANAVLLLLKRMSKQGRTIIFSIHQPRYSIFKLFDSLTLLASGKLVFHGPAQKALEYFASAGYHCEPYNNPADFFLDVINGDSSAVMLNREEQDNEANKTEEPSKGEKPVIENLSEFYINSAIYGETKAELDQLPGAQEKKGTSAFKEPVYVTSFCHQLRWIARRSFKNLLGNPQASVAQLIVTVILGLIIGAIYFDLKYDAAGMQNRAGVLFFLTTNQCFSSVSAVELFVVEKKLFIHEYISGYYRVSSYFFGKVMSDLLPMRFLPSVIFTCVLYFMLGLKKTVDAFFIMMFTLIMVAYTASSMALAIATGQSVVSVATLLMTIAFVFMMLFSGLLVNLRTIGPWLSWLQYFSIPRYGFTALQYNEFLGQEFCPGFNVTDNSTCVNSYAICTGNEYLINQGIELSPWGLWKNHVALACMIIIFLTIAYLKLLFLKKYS", "assay": "Drug transport in MDCK2 cells expressing mouse ABCG2 assessed as transporter-mediated efflux ratio at 1 uM after 1 to 4 hrs", "assay_type": "ADME, cell-based", "conditions": "mdck2, 1 µM"}, "Brain [11]": {"tested_on": "Brain", "assay": "Drug level in brain of Abcg2 (-/-) FVB mouse at 10 mg/kg, po after 4 hrs by liquid chromatography-tandem mass spectrometry relative to wild type FVB mouse", "assay_type": "ADME, organism-based", "design": "dose 10 mg/kg, route oral", "conditions": "in vivo"}, "Brain [12]": {"tested_on": "Brain", "assay": "Drug level in brain of Abcg2 (-/-) FVB mouse at 10 mg/kg, po after 1 hr by liquid chromatography-tandem mass spectrometry relative to wild type FVB mouse", "assay_type": "ADME, organism-based", "design": "dose 10 mg/kg, route oral", "conditions": "in vivo"}, "[13]": {"assay": "AUC (0 to 1 hr) in Abcb1a/1b (-/-) FVB mouse plasma at 10 mg/kg, po by liquid chromatography-tandem mass spectrometry", "assay_type": "ADME, organism-based", "design": "time < 1 hr, dose 10 mg/kg, route oral"}, "[14]": {"assay": "AUC (0 to 4 hrs) in FVB mouse plasma at 10 mg/kg, po by liquid chromatography-tandem mass spectrometry", "assay_type": "ADME, organism-based", "design": "time < 4 hr, dose 10 mg/kg, route oral"}, "[15]": {"assay": "Drug level in brain of Abcb1a/1b;Abcg2 (-/-) FVB mouse at 10 mg/kg, po after 1 hr by liquid chromatography-tandem mass spectrometry", "assay_type": "ADME, organism-based", "design": "dose 10 mg/kg, route oral", "conditions": "read-out: Drug uptake"}, "[16]": {"assay": "Drug level in brain of Abcb1a/1b (-/-) FVB mouse at 10 mg/kg, po after 1 hr by liquid chromatography-tandem mass spectrometry", "assay_type": "ADME, organism-based", "design": "dose 10 mg/kg, route oral", "conditions": "read-out: Drug uptake"}, "Brain [17]": {"tested_on": "Brain", "assay": "Drug level in brain of Abcb1a/1b;Abcg2 (-/-) FVB mouse at 10 mg/kg, po after 1 hr by liquid chromatography-tandem mass spectrometry relative to wild type FVB mouse", "assay_type": "ADME, organism-based", "design": "dose 10 mg/kg, route oral", "conditions": "in vivo"}, "Brain [18]": {"tested_on": "Brain", "assay": "Drug level in brain of Abcb1a/1b;Abcg2 (-/-) FVB mouse at 10 mg/kg, po after 4 hrs by liquid chromatography-tandem mass spectrometry relative to wild type FVB mouse", "assay_type": "ADME, organism-based", "design": "dose 10 mg/kg, route oral", "conditions": "in vivo"}, "[19]": {"assay": "AUC (0 to 4 hrs) in Abcb1a/1b;Abcg2 (-/-) FVB mouse plasma at 10 mg/kg, po by liquid chromatography-tandem mass spectrometry", "assay_type": "ADME, organism-based", "design": "time < 4 hr, dose 10 mg/kg, route oral"}, "[20]": {"assay": "AUC (0 to 4 hrs) in Abcg2 (-/-) FVB mouse plasma at 10 mg/kg, po by liquid chromatography-tandem mass spectrometry", "assay_type": "ADME, organism-based", "design": "time < 4 hr, dose 10 mg/kg, route oral"}, "[21]": {"assay": "Drug level in brain of Abcb1a/1b (-/-) FVB mouse at 10 mg/kg, po after 4 hrs by liquid chromatography-tandem mass spectrometry", "assay_type": "ADME, organism-based", "design": "dose 10 mg/kg, route oral", "conditions": "read-out: Drug uptake"}, "[22]": {"assay": "Drug level in brain of FVB mouse at 10 mg/kg, po after 1 hr by liquid chromatography-tandem mass spectrometry", "assay_type": "ADME, organism-based", "design": "dose 10 mg/kg, route oral", "conditions": "read-out: Drug uptake"}, "ABCB1": {"biological_target": "ABCB1 (Homo sapiens, UniProt P08183)", "sequence (P08183 whole entry)": "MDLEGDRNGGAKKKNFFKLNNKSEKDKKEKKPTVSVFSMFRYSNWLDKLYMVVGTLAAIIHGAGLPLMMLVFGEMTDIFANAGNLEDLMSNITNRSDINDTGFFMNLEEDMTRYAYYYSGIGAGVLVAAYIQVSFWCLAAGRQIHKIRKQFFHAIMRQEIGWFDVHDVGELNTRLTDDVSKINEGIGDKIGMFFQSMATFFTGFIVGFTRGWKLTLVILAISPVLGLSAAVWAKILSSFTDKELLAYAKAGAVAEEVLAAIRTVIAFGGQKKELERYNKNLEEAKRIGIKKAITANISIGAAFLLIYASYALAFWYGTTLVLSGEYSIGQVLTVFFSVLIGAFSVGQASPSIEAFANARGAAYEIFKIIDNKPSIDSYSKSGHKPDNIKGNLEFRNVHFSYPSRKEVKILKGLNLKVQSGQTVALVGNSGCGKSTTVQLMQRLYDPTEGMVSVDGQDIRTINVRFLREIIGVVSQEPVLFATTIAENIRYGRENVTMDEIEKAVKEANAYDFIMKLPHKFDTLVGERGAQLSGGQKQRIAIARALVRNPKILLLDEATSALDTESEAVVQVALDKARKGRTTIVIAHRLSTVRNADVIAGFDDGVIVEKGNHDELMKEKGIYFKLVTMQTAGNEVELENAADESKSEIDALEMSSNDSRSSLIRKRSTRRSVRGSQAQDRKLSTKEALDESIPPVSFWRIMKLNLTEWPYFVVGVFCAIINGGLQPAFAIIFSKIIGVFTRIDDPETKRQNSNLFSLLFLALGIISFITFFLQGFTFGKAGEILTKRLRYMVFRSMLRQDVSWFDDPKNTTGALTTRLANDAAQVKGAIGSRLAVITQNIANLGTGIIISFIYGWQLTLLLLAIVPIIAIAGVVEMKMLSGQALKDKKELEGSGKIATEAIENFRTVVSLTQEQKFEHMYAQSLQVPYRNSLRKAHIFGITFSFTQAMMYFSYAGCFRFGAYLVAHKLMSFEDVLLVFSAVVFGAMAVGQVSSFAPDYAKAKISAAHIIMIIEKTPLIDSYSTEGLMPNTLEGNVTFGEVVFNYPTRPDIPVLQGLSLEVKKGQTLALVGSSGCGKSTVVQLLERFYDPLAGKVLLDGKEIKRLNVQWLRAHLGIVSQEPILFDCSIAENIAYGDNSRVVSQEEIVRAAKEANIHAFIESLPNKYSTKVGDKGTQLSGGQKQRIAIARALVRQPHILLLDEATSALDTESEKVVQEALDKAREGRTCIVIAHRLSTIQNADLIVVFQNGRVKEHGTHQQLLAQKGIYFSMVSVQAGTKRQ", "assay": "Drug transport in MDCK2 cells expressing human ABCB1 assessed as transporter-mediated efflux ratio at 1 uM after 1 to 4 hrs", "assay_type": "ADME, cell-based", "conditions": "MDCK-MDR1"}, "[23]": {"assay": "Drug level in brain of Abcg2 (-/-) FVB mouse at 10 mg/kg, po after 1 hr by liquid chromatography-tandem mass spectrometry", "assay_type": "ADME, organism-based", "design": "dose 10 mg/kg, route oral", "conditions": "read-out: Drug uptake"}, "Brain [24]": {"tested_on": "Brain", "assay": "Drug level in brain of Abcb1a/1b (-/-) FVB mouse at 10 mg/kg, po after 1 hr by liquid chromatography-tandem mass spectrometry relative to wild type FVB mouse", "assay_type": "ADME, organism-based", "design": "dose 10 mg/kg, route oral", "conditions": "in vivo"}, "[25]": {"assay": "AUC (0 to 4 hrs) in Abcb1a/1b (-/-) FVB mouse plasma at 10 mg/kg, po by liquid chromatography-tandem mass spectrometry", "assay_type": "ADME, organism-based", "design": "time < 4 hr, dose 10 mg/kg, route oral"}, "[26]": {"assay": "Drug level in brain of Abcg2 (-/-) FVB mouse at 10 mg/kg, po after 4 hrs by liquid chromatography-tandem mass spectrometry", "assay_type": "ADME, organism-based", "design": "dose 10 mg/kg, route oral", "conditions": "read-out: Drug uptake"}},
  "data": [
    {"compound": "CNC(=O)c1ccccc1Sc1ccc2c(/C=C/c3ccccn3)n[nH]c2c1", "note": "[AXITINIB]", "values": [
      {"measurement": "efflux ratio at 1 µM", "setting": "[1]", "result": 1.4},
      {"measurement": "AUC(0-t) at 1 h", "setting": "[2]", "result": 1.4, "unit": "µg·h/mL"},
      {"measurement": "efflux ratio at 1 µM", "setting": "ABCG2", "result": 1.3},
      {"measurement": "AUC(0-t) at 1 h", "setting": "[3]", "result": 1.76, "unit": "µg·h/mL"},
      {"measurement": "Drug transport", "setting": "[4]", "result": "Not Active"},
      {"measurement": "Ratio", "setting": "Brain [5]", "result": 7.9},
      {"measurement": "Drug transport", "setting": "[6]", "result": "Not Active"},
      {"measurement": "concentration at 4 h", "setting": "[7]", "result": 6, "unit": "ng/g"},
      {"measurement": "AUC(0-t) at 1 h", "setting": "[8]", "result": 1.09, "unit": "µg·h/mL"},
      {"measurement": "concentration at 4 h", "setting": "[9]", "result": 250, "unit": "ng/g"},
      {"measurement": "Ratio", "setting": "[10]", "result": 3.4},
      {"measurement": "Ratio", "setting": "Brain [11]", "result": 1.1},
      {"measurement": "Ratio", "setting": "Brain [12]", "result": 0.8},
      {"measurement": "AUC(0-t) at 1 h", "setting": "[13]", "result": 0.95, "unit": "µg·h/mL"},
      {"measurement": "AUC(0-t) at 4 h", "setting": "[14]", "result": 2.68, "unit": "µg·h/mL"},
      {"measurement": "concentration at 1 h", "setting": "[15]", "result": 1980, "unit": "ng/g"},
      {"measurement": "concentration at 1 h", "setting": "[16]", "result": 640, "unit": "ng/g"},
      {"measurement": "Ratio", "setting": "Brain [17]", "result": 19.6},
      {"measurement": "Ratio", "setting": "Brain [18]", "result": 42.4},
      {"measurement": "AUC(0-t) at 4 h", "setting": "[19]", "result": 4.95, "unit": "µg·h/mL"},
      {"measurement": "AUC(0-t) at 4 h", "setting": "[20]", "result": 4.67, "unit": "µg·h/mL"},
      {"measurement": "concentration at 4 h", "setting": "[21]", "result": 47, "unit": "ng/g"},
      {"measurement": "concentration at 1 h", "setting": "[22]", "result": 100, "unit": "ng/g"},
      {"measurement": "efflux ratio at 1 µM", "setting": "ABCB1", "result": 5.3},
      {"measurement": "concentration at 1 h", "setting": "[23]", "result": 80, "unit": "ng/g"},
      {"measurement": "Ratio", "setting": "Brain [24]", "result": 6.3},
      {"measurement": "AUC(0-t) at 4 h", "setting": "[25]", "result": 3.95, "unit": "µg·h/mL"},
      {"measurement": "concentration at 4 h", "setting": "[26]", "result": 7, "unit": "ng/g"}
    ]}
  ]
}
